In experiment [1] the target is Bcl-XL (Homo sapiens, UniProt Q07817). As to the kind of experiment: Fluorescence polarisation, Kd of peptide with GST-Bcl-XL. Type of experiment: binding. The following applies: 15 nM peptide labelled with fluorescein at the N-terminal end; GST-Bcl-XL 1 nM to 5 μM; pH 7.4; FIG. 2; read-out: Kd obtained with Bcl-XL. The protocol: (§1) 2) Fluorescence Polarisation: Determination of the Kd of the Interaction Between the Peptide Obtained in Example 1 and the Anti-Apoptotic Protein
Bcl-XL, sequence (Q07817 whole entry, species assumed, the tested form may be a part): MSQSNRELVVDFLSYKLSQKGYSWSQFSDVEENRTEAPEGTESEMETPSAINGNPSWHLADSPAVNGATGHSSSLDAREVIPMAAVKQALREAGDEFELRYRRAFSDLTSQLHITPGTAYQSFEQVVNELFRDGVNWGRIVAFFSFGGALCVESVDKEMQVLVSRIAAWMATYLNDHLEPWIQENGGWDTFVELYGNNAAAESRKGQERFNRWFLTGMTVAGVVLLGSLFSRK
(§2) A 15 nM solution of the peptide obtained in Example 1 labelled with fluorescein at the N-terminal end is mixed with a solution containing the fusion protein GST-Bcl-XL or GST-Bcl-W at a concentration varying from 1 nM to 5 μM in a buffer containing Na2HPO4 20 mM pH 7.4, EDTA 1 mM, NaCl 50 mM, pluronic acid F-68 0.05%. The fluorescence polarisation is then measured by the En Vision apparatus (Packard Perkin-Elmer).
In general terms: In fluorescence polarisation assays a small probe gives low polarisation when free and higher when bound to something large.

Experiment [2] concerns the target T1, Bcl-W (Homo sapiens, UniProt Q92843).
T1 sequence (Q92843 1-193): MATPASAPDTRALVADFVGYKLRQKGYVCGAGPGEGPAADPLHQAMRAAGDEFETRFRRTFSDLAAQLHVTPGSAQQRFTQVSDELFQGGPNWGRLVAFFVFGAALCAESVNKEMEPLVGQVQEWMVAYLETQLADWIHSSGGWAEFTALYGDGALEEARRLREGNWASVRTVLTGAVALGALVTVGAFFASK
The experiment can be described thus: Fluorescence polarisation, Kd of peptide with GST-Bcl-W. Type of experiment: binding. The following applies: 15 nM peptide labelled with fluorescein at the N-terminal end; GST-Bcl-W 1 nM to 5 μM; pH 7.4; FIG. 3; read-out: Kd obtained with Bcl-W. The protocol:
as §1, §2

No end group written: not given here.

Usually Kd stands for the constant that tells how readily two partners part at equilibrium.

On to “DTRRSMVFARHLREVGDEFRSR [peptide obtained in Example 1]”, for which the figures for the equilibrium dissociation constant (Kd) in experiment [1] and in experiment [2] were 215 nM and 411 nM, respectively.

The record behind these values is patent US7459434B2, “Peptide interacting with anti-apoptotic proteins of the Bcl-2 family” (Les Laboratories Servier, priority 2003, dated 2008).
